# ChEMBL document CHEMBL5647697, “Akt inhibition synergizes with polycomb repressive complex 2 inhibition in the treatment of multiple myeloma” (2019)
# Experiments:
# Type in all cases: functional
# [1] = test system: MM1.S; assay: Induction of apoptosis in human MM1.S cells assessed as late apoptotic cells at 5 micromol/L incubated for 48 hrs by annexin V/PI staining based flow cytometry (reference value: 3.6%); conditions: dose 5 µmol/L, at 5 µM
# [2] = test system: MM1.S; assay: Induction of apoptosis in human MM1.S cells assessed as early apoptotic cells at 5 micromol/L incubated for 48 hrs by annexin V/PI staining based flow cytometry (reference value: 8.03%); conditions: dose 5 µmol/L, at 5 µM
# [3] = test system: MM1.S; assay: Induction of apoptosis in human MM1.S cells assessed as necrotic cells at 5 micromol/L incubated for 48 hrs by annexin V/PI staining based flow cytometry (reference value: 0.17%); conditions: dose 5 µmol/L, at 5 µM
# [4] = test system: MM1.S; assay: Induction of apoptosis in human MM1.S cells assessed as viable cells at 5 micromol/L incubated for 48 hrs by annexin V/PI staining based flow cytometry (reference value: 88.2%); conditions: dose 5 µmol/L, read-out: Activity
compound,measurement,setting,value
CCCc1cc(C)[nH]c(=O)c1CNC(=O)c1cc(-c2ccc(N3CCN(C(C)C)CC3)nc2)cc2c1cnn2C(C)C,Activity,[1],15.9%
same,Activity,[2],18.8%
same,Activity,[3],0.41%
same,viability at 5 µM,[4],64.9%
